# In ChEMBL document CHEMBL4665836, “Overcoming β-Lactam resistance in Pseudomonas aeruginosa using non-canonical tobramycin-based antibiotic adjuvants” (2020):
# Tests used:
# Format in all cases: functional
# Pseudomonas aeruginosa [1] = assay: Potentiation of aztreonam-induced antibacterial activity against carbapenem-resistant Pseudomonas aeruginosa 259-96918 clinical isolate expressing metallo-beta-lactamase assessed as aztreonam MIC at 8 uM by checkerboard assay (reference value: 32 ug/ml)
# Pseudomonas aeruginosa [2] = assay: Potentiation of aztreonam-induced antibacterial activity against carbapenem-resistant Pseudomonas aeruginosa 264-104354 clinical isolate assessed as aztreonam MIC at 8 uM by checkerboard assay (reference value: 32 ug/ml)
# Pseudomonas aeruginosa [3] = assay: Potentiation of imipenem-induced antibacterial activity against carbapenem-resistant Pseudomonas aeruginosa 109084 clinical isolate assessed as imipenem MIC at 8 uM by checkerboard assay (reference value: 16 ug/ml)
# Pseudomonas aeruginosa [4] = assay: Potentiation of imipenem-induced antibacterial activity against carbapenem-resistant Pseudomonas aeruginosa 86052 clinical isolate assessed as imipenem MIC at 8 uM by checkerboard assay (reference value: 32 ug/ml)
# Pseudomonas aeruginosa [5] = assay: Potentiation of imipenem-induced antibacterial activity against carbapenem-resistant Pseudomonas aeruginosa 88949 clinical isolate assessed as imipenem MIC at 8 uM by checkerboard assay (reference value: 64 ug/ml)
# Pseudomonas aeruginosa [6] = assay: Potentiation of aztreonam-induced antibacterial activity against carbapenem-resistant Pseudomonas aeruginosa 108590 clinical isolate assessed as fold reduction in aztreonam MIC at 8 uM in presence of beta-lactamase inhibitor, avi-bactam
# Pseudomonas aeruginosa [7] = assay: Potentiation of aztreonam-induced antibacterial activity against carbapenem-resistant Pseudomonas aeruginosa 109084 clinical isolate assessed as aztreonam MIC at 8 uM by checkerboard assay (reference value: 64 ug/ml)
# Pseudomonas aeruginosa [8] = assay: Potentiation of ceftazidime-induced antibacterial activity against carbapenem-resistant Pseudomonas aeruginosa 262-101856 clinical isolate assessed as ceftazidime MIC at 8 uM by checkerboard assay (reference value: 16 ug/ml)
# Pseudomonas aeruginosa [9] = assay: Potentiation of piperacillin-induced antibacterial activity against wild type Pseudomonas aeruginosa PAO1 assessed as piperacillin MIC at 8 uM by checkerboard assay (reference value: 8 ug/ml)
# Pseudomonas aeruginosa [10] = assay: Potentiation of aztreonam-induced antibacterial activity against carbapenem-resistant Pseudomonas aeruginosa 109084 clinical isolate assessed as fold reduction in aztreonam MIC at 8 uM in presence of beta-lactamase inhibitor, avi-bactam
# Pseudomonas aeruginosa [11] = assay: Potentiation of imipenem-induced antibacterial activity against carbapenem-resistant Pseudomonas aeruginosa 107092 clinical isolate assessed as imipenem MIC at 8 uM by checkerboard assay (reference value: 64 ug/ml)
# Pseudomonas aeruginosa [12] = assay: Potentiation of aztreonam-induced antibacterial activity against carbapenem and colistin-resistant Pseudomonas aeruginosa 91433 clinical isolate assessed as aztreonam MIC at 8 uM by checkerboard assay (reference value: 16 ug/ml)
# Pseudomonas aeruginosa [13] = assay: Potentiation of imipenem-induced antibacterial activity against carbapenem-resistant Pseudomonas aeruginosa 260-97103 clinical isolate assessed as imipenem MIC at 8 uM by checkerboard assay (reference value: 16 ug/ml)
# Pseudomonas aeruginosa [14] = assay: Potentiation of aztreonam-induced antibacterial activity against carbapenem and colistin-resistant Pseudomonas aeruginosa 114228 clinical isolate assessed as aztreonam MIC at 8 uM by checkerboard assay (reference value: 32 ug/ml)
# Pseudomonas aeruginosa [15] = assay: Potentiation of aztreonam-induced antibacterial activity against wild type Pseudomonas aeruginosa PAO1 assessed as fold reduction in aztreonam MIC at 8 uM
# Pseudomonas aeruginosa [16] = assay: Potentiation of aztreonam-induced antibacterial activity against carbapenem-resistant Pseudomonas aeruginosa 88949 clinical isolate assessed as fold reduction in aztreonam MIC at 8 uM in presence of beta-lactamase inhibitor, avi-bactam
# Pseudomonas aeruginosa [17] = assay: Potentiation of imipenem-induced antibacterial activity against carbapenem-resistant Pseudomonas aeruginosa 101885 clinical isolate assessed as imipenem MIC at 8 uM by checkerboard assay (reference value: 4 ug/ml)
# Pseudomonas aeruginosa [18] = assay: Potentiation of aztreonam-induced antibacterial activity against carbapenem and colistin-resistant Pseudomonas aeruginosa 101243 clinical isolate assessed as aztreonam MIC at 8 uM by checkerboard assay (reference value: 32 ug/ml)
# Pseudomonas aeruginosa [19] = assay: Potentiation of aztreonam-induced antibacterial activity against wild type Pseudomonas aeruginosa PAO1 assessed as aztreonam MIC at 8 uM by checkerboard assay (reference value: 4 ug/ml)
# Pseudomonas aeruginosa [20] = assay: Potentiation of imipenem-induced antibacterial activity against wild-type Pseudomonas aeruginosa PAO1 assessed as imipenem MIC at 8 uM by checkerboard assay (reference value: 4 ug/ml)
# Pseudomonas aeruginosa [21] = assay: Potentiation of ceftazidime-induced antibacterial activity against carbapenem-resistant Pseudomonas aeruginosa 259-96918 clinical isolate expressing metallo-beta-lactamase assessed as ceftazidime MIC at 8 uM by checkerboard assay (reference value: 512 ug/ml)
# Pseudomonas aeruginosa [22] = assay: Potentiation of imipenem-induced antibacterial activity against carbapenem-resistant Pseudomonas aeruginosa 262-101856 clinical isolate assessed as imipenem MIC at 8 uM by checkerboard assay (reference value: 32 ug/ml)
# Pseudomonas aeruginosa [23] = assay: Antibacterial activity against Pseudomonas aeruginosa PAO200 harboring mexAB-oprM efflux deficient mutant
# Pseudomonas aeruginosa [24] = assay: Potentiation of ceftazidime-induced antibacterial activity against wild type Pseudomonas aeruginosa PAO1 assessed as fold reduction in ceftazidime MIC at 8 uM
# Pseudomonas aeruginosa [25] = assay: Potentiation of ceftazidime-induced antibacterial activity against carbapenem-resistant Pseudomonas aeruginosa 108590 clinical isolate assessed as ceftazidime MIC at 8 uM by checkerboard assay (reference value: 32 ug/ml)
# Pseudomonas aeruginosa [26] = assay: Potentiation of ceftazidime-induced antibacterial activity against carbapenem-resistant Pseudomonas aeruginosa 100036 clinical isolate assessed as ceftazidime MIC at 8 uM by checkerboard assay (reference value: 8 ug/ml)
# Pseudomonas aeruginosa [27] = assay: Potentiation of imipenem-induced antibacterial activity against carbapenem-resistant Pseudomonas aeruginosa PAO200 harboring mexAB-oprM efflux deficient mutant assessed as imipenem MIC at 8 uM by checkerboard assay (reference value: 4 ug/ml)
# Pseudomonas aeruginosa [28] = assay: Antibacterial activity against Pseudomonas aeruginosa PAO750 harboring mexAB-oprM/mexCD-oprJ/mexEF-oprN/mexJK/mexXY/opmH efflux deficient mutant
# Pseudomonas aeruginosa [29] = assay: Potentiation of aztreonam-induced antibacterial activity against carbapenem-resistant Pseudomonas aeruginosa 107092 clinical isolate assessed as aztreonam MIC at 8 uM by checkerboard assay (reference value: 64 ug/ml)
# Pseudomonas aeruginosa [30] = assay: Potentiation of aztreonam-induced antibacterial activity against carbapenem-resistant Pseudomonas aeruginosa 107092 clinical isolate assessed as fold reduction in aztreonam MIC at 8 uM in presence of beta-lactamase inhibitor, avi-bactam
# Pseudomonas aeruginosa [31] = assay: Potentiation of ceftazidime-induced antibacterial activity against carbapenem and colistin-resistant Pseudomonas aeruginosa 91433 clinical isolate assessed as ceftazidime MIC at 8 uM by checkerboard assay (reference value: 4 ug/ml)
# Pseudomonas aeruginosa [32] = assay: Potentiation of ceftazidime-induced antibacterial activity against carbapenem-resistant Pseudomonas aeruginosa 86052 clinical isolate assessed as ceftazidime MIC at 8 uM by checkerboard assay (reference value: 64 ug/ml)
# Pseudomonas aeruginosa [33] = assay: Antibacterial activity against wild type Pseudomonas aeruginosa PAO1
# Pseudomonas aeruginosa [34] = assay: Potentiation of aztreonam-induced antibacterial activity against carbapenem-resistant Pseudomonas aeruginosa 86052 clinical isolate assessed as fold reduction in aztreonam MIC at 8 uM in presence of beta-lactamase inhibitor, avi-bactam
Structure (SMILES),MIC (Pseudomonas aeruginosa [1]),MIC (Pseudomonas aeruginosa [2]),MIC (Pseudomonas aeruginosa [3]),MIC (Pseudomonas aeruginosa [4]),MIC (Pseudomonas aeruginosa [5]),fold change (FC) (Pseudomonas aeruginosa [6]),MIC (Pseudomonas aeruginosa [7]),MIC (Pseudomonas aeruginosa [8]),MIC (Pseudomonas aeruginosa [9]),fold change (FC) (Pseudomonas aeruginosa [10]),MIC (Pseudomonas aeruginosa [11]),MIC (Pseudomonas aeruginosa [12]),MIC (Pseudomonas aeruginosa [13]),MIC (Pseudomonas aeruginosa [14]),fold change (FC) (Pseudomonas aeruginosa [15]),fold change (FC) (Pseudomonas aeruginosa [16]),MIC (Pseudomonas aeruginosa [17]),MIC (Pseudomonas aeruginosa [18]),MIC (Pseudomonas aeruginosa [19]),MIC (Pseudomonas aeruginosa [20]),other results
NC[C@H]1O[C@H](O[C@H]2[C@H](OCCCCc3cn(CCCCO[C@@H]4[C@@H](O[C@H]5O[C@H](CO)[C@@H](O)[C@H](N)[C@H]5O)[C@H](N)C[C@H](N)[C@H]4O[C@H]4O[C@H](CN)[C@@H](O)C[C@H]4N)nn3)[C@@H](O[C@H]3O[C@H](CO)[C@@H](O)[C@H](N)[C@H]3O)[C@H](N)C[C@@H]2N)[C@H](N)C[C@@H]1O.O=C(O)C(F)(F)F.O=C(O)C(F)(F)F.O=C(O)C(F)(F)F.O=C(O)C(F)(F)F.O=C(O)C(F)(F)F.O=C(O)C(F)(F)F.O=C(O)C(F)(F)F.O=C(O)C(F)(F)F.O=C(O)C(F)(F)F.O=C(O)C(F)(F)F,8 µg/mL,8 µg/mL,8 µg/mL,16 µg/mL,4 µg/mL,16,8 µg/mL,2 µg/mL,0.5 µg/mL,16,16 µg/mL,4 µg/mL,16 µg/mL,4 µg/mL,2,16,4 µg/mL,16 µg/mL,0.25 µg/mL,1 µg/mL,MIC (Pseudomonas aeruginosa [21]): 128 µg/mL; MIC (Pseudomonas aeruginosa [22]): 2 µg/mL; MIC (Pseudomonas aeruginosa [23]): > 128 µg/mL; fold change (FC) (Pseudomonas aeruginosa [24]): 2; MIC (Pseudomonas aeruginosa [25]): 8 µg/mL; MIC (Pseudomonas aeruginosa [26]): 2 µg/mL; MIC (Pseudomonas aeruginosa [27]): 1 µg/mL; MIC (Pseudomonas aeruginosa [28]): > 128 µg/mL; MIC (Pseudomonas aeruginosa [29]): 16 µg/mL; fold change (FC) (Pseudomonas aeruginosa [30]): 16; MIC (Pseudomonas aeruginosa [31]): 1 µg/mL; MIC (Pseudomonas aeruginosa [32]): 64 µg/mL; MIC (Pseudomonas aeruginosa [33]): > 128 µg/mL; fold change (FC) (Pseudomonas aeruginosa [34]): 16
Cl.Cl.Cl.Cl.Cl.NC[C@H]1O[C@H](O[C@H]2[C@H](OCCCCCCCCCCCCN3CCN(c4cc5c(cc4F)c(=O)c(C(=O)O)cn5C4CC4)CC3)[C@@H](O)[C@H](N)C[C@@H]2N)[C@H](N)C[C@@H]1O,8 µg/mL,16 µg/mL,8 µg/mL,4 µg/mL,64 µg/mL,16,32 µg/mL,4 µg/mL,2 µg/mL,16,16 µg/mL,8 µg/mL,2 µg/mL,8 µg/mL,2,16,2 µg/mL,0.25 µg/mL,0.5 µg/mL,1 µg/mL,MIC (Pseudomonas aeruginosa [21]): 128 µg/mL; MIC (Pseudomonas aeruginosa [22]): 8 µg/mL; MIC (Pseudomonas aeruginosa [23]): 4 µg/mL; fold change (FC) (Pseudomonas aeruginosa [24]): 2; MIC (Pseudomonas aeruginosa [25]): 1 µg/mL; MIC (Pseudomonas aeruginosa [26]): 4 µg/mL; MIC (Pseudomonas aeruginosa [27]): 1 µg/mL; MIC (Pseudomonas aeruginosa [28]): 2 µg/mL; MIC (Pseudomonas aeruginosa [29]): 32 µg/mL; fold change (FC) (Pseudomonas aeruginosa [30]): 16; MIC (Pseudomonas aeruginosa [31]): 0.5 µg/mL; MIC (Pseudomonas aeruginosa [32]): 4 µg/mL; MIC (Pseudomonas aeruginosa [33]): 32 µg/mL; fold change (FC) (Pseudomonas aeruginosa [34]): 16
NC[C@H]1O[C@H](O[C@H]2[C@H](OCCCCc3cn(CCCCO[C@@H]4[C@@H](O)[C@H](N)C[C@H](N)[C@H]4O[C@H]4O[C@H](CN)[C@@H](O)C[C@H]4N)nn3)[C@@H](O)[C@H](N)C[C@@H]2N)[C@H](N)C[C@@H]1O.O=C(O)C(F)(F)F.O=C(O)C(F)(F)F.O=C(O)C(F)(F)F.O=C(O)C(F)(F)F.O=C(O)C(F)(F)F.O=C(O)C(F)(F)F.O=C(O)C(F)(F)F.O=C(O)C(F)(F)F,8 µg/mL,8 µg/mL,16 µg/mL,16 µg/mL,32 µg/mL,16,16 µg/mL,16 µg/mL,8 µg/mL,16,32 µg/mL,2 µg/mL,16 µg/mL,16 µg/mL,2,16,4 µg/mL,8 µg/mL,1 µg/mL,2 µg/mL,MIC (Pseudomonas aeruginosa [21]): 128 µg/mL; MIC (Pseudomonas aeruginosa [22]): 4 µg/mL; MIC (Pseudomonas aeruginosa [23]): > 128 µg/mL; fold change (FC) (Pseudomonas aeruginosa [24]): 2; MIC (Pseudomonas aeruginosa [25]): 32 µg/mL; MIC (Pseudomonas aeruginosa [26]): 4 µg/mL; MIC (Pseudomonas aeruginosa [27]): 1 µg/mL; MIC (Pseudomonas aeruginosa [28]): 128 µg/mL; MIC (Pseudomonas aeruginosa [29]): 32 µg/mL; fold change (FC) (Pseudomonas aeruginosa [30]): 16; MIC (Pseudomonas aeruginosa [31]): 0.5 µg/mL; MIC (Pseudomonas aeruginosa [32]): 64 µg/mL; MIC (Pseudomonas aeruginosa [33]): > 128 µg/mL; fold change (FC) (Pseudomonas aeruginosa [34]): 16
